Data published in PubChem BioAssay AID256 (DTP/NCI, 2004).
Inconclusive results and toxic doses are left out. Rule for the calls: active = survival T/C of 150% or more; inactive = T/C below 125% in these data.

Test system: CD2F1 mice, L1210 leukemia ip, survival T/C
Assay: NCI In Vivo Anticancer Drug Screen. Data for tumor model L1210 Leukemia (intraperitoneal) in CD2F1 (CDF1) mice
Settings: higher = longer survival
How it was run: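 Each value reflects a quotient of treated over vehicle control outcomes in mice with a transplanted tumor.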

[1] = endpoint: mean survival time, dose: 100.0 mg/kg/injection, schedule: Q04DX003 (ip), vehicle: saline with Tween-80
[2] = endpoint: mean survival time, dose: 200.0 mg/kg/injection, schedule: Q04DX003 (ip), vehicle: saline with Tween-80
[3] = endpoint: mean survival time, dose: 400.0 mg/kg/injection, schedule: Q04DX003 (ip), vehicle: saline with Tween-80
[4] = endpoint: mean survival time, dose: 100.0 mg/kg/injection, schedule: Q01DX001 (ip), vehicle: saline
[5] = endpoint: mean survival time, dose: 200.0 mg/kg/injection, schedule: Q01DX001 (ip), vehicle: saline
[6] = endpoint: mean survival time, dose: 400.0 mg/kg/injection, schedule: Q01DX001 (ip), vehicle: saline

Measured: T/C

CN=C(Nc1ccc(OC)c2ccccc12)SC
inactive: endpoint: mean survival time, dose: 100.0 mg/kg/injection, schedule: Q04DX003 (ip), vehicle: Klucel (hydroxypropylcellulose) (HPC) 89 % of control | endpoint: mean survival time, dose: 200.0 mg/kg/injection, schedule: Q04DX003 (ip), vehicle: Klucel (hydroxypropylcellulose) (HPC) 91 % of control

Cn1c(=O)c2c(ncn2C2C(=O)NNC2=O)n(C)c1=O
inactive: endpoint: mean survival time, dose: 12.5 mg/kg/injection, schedule: Q01DX005 (ip), vehicle: distilled water + Tween-80 102 % of control | endpoint: mean survival time, dose: 25.0 mg/kg/injection, schedule: Q01DX005 (ip), vehicle: distilled water + Tween-80 104 % of control | endpoint: mean survival time, dose: 50.0 mg/kg/injection, schedule: Q01DX005 (ip), vehicle: distilled water + Tween-80 104 % of control | endpoint: mean survival time, dose: 100.0 mg/kg/injection, schedule: Q01DX005 (ip), vehicle: distilled water + Tween-80 98 % of control | endpoint: mean survival time, dose: 200.0 mg/kg/injection, schedule: Q01DX005 (ip), vehicle: distilled water + Tween-80 92 % of control | endpoint: mean survival time, dose: 400.0 mg/kg/injection, schedule: Q01DX005 (ip), vehicle: distilled water + Tween-80 95 % of control

C=C1N(c2ccccc2)C(=O)OC1(C)C
inactive: endpoint: mean survival time, dose: 100.0 mg/kg/injection, schedule: Q04DX002 (ip), vehicle: saline with Tween-80 112 % of control | endpoint: mean survival time, dose: 200.0 mg/kg/injection, schedule: Q04DX002 (ip), vehicle: saline with Tween-80 112 % of control | endpoint: mean survival time, dose: 400.0 mg/kg/injection, schedule: Q04DX002 (ip), vehicle: saline with Tween-80 122 % of control

COc1cc(/C=C2\NC(=O)NC2=O)ccc1O
inactive: endpoint: mean survival time, dose: 100.0 mg/kg/injection, schedule: Q01DX001 (ip), vehicle: saline with Tween-80 94 % of control | endpoint: mean survival time, dose: 200.0 mg/kg/injection, schedule: Q01DX001 (ip), vehicle: saline with Tween-80 88 % of control | endpoint: mean survival time, dose: 400.0 mg/kg/injection, schedule: Q01DX001 (ip), vehicle: saline with Tween-80 90 % of control

Cc1ccccc1NC(=O)C1CCC(C)(C(=O)O)C1(C)C (configuration not stated)
inactive: [1] 98 % of control | [2] 93 % of control | [3] 96 % of control

O=C(Nc1ccccc1)O/N=C(/c1ccccc1)c1ccccn1
inactive: endpoint: mean survival time, dose: 100.0 mg/kg/injection, schedule: Q01DX001 (ip), vehicle: other 104 % of control | endpoint: mean survival time, dose: 200.0 mg/kg/injection, schedule: Q01DX001 (ip), vehicle: other 98 % of control | endpoint: mean survival time, dose: 400.0 mg/kg/injection, schedule: Q01DX001 (ip), vehicle: other 101 % of control

Cc1ccc(S(=O)(=O)OC2CC3CCC2C3)cc1 (configuration not stated)
inactive: endpoint: mean survival time, dose: 100.0 mg/kg/injection, schedule: Q04DX003 (ip), vehicle: acetone 105 % of control | endpoint: mean survival time, dose: 200.0 mg/kg/injection, schedule: Q04DX003 (ip), vehicle: acetone 101 % of control | endpoint: mean survival time, dose: 400.0 mg/kg/injection, schedule: Q04DX003 (ip), vehicle: acetone 100 % of control

COc1ccc(C(=Nc2ccc(C)cc2)c2ccc([N+](=O)[O-])cc2)cc1
inactive: endpoint: mean survival time, dose: 100.0 mg/kg/injection, schedule: Q01DX009 (ip), vehicle: saline with Tween-80 94 % of control | [1] 98 % of control | endpoint: mean survival time, dose: 200.0 mg/kg/injection, schedule: Q01DX009 (ip), vehicle: saline with Tween-80 98 % of control | [2] 98 % of control | endpoint: mean survival time, dose: 400.0 mg/kg/injection, schedule: Q01DX009 (ip), vehicle: saline with Tween-80 96 % of control | [3] 98 % of control

Brc1ccc2ncc3ccccc3c2c1
inactive: [4] 93 % of control | [5] 98 % of control | [6] 96 % of control

O=C1OC(=O)C2CCCC1C2
inactive: [4] 105 % of control | [5] 105 % of control | [6] 100 % of control

CC(C)c1cc(C(C)(C)C)c(O)c(C(C)(C)C)c1
inactive: endpoint: mean survival time, dose: 25.0 mg/kg/injection, schedule: Q01DX009 (ip), vehicle: Klucel (hydroxypropylcellulose) (HPC) 94 % of control | endpoint: mean survival time, dose: 50.0 mg/kg/injection, schedule: Q01DX009 (ip), vehicle: Klucel (hydroxypropylcellulose) (HPC) 102 % of control | endpoint: mean survival time, dose: 100.0 mg/kg/injection, schedule: Q01DX009 (ip), vehicle: Klucel (hydroxypropylcellulose) (HPC) 98 % of control

C[Si](C)(C)C1CCC2C3C=CC(C3)C21 (configuration not stated)
inactive: endpoint: mean survival time, dose: 100.0 mg/kg/injection, schedule: Q04DX003 (ip), vehicle: alcohol 107 % of control | endpoint: mean survival time, dose: 200.0 mg/kg/injection, schedule: Q04DX003 (ip), vehicle: alcohol 96 % of control | endpoint: mean survival time, dose: 400.0 mg/kg/injection, schedule: Q04DX003 (ip), vehicle: alcohol 96 % of control

Cc1ccc(/C=C2\CC(C)(C)c3ccccc3C2=O)cc1
inactive: endpoint: mean survival time, dose: 100.0 mg/kg/injection, schedule: Q01DX009 (ip), vehicle: saline 96 % of control | endpoint: mean survival time, dose: 100.0 mg/kg/injection, schedule: Q04DX003 (ip), vehicle: other 104 % of control | endpoint: mean survival time, dose: 200.0 mg/kg/injection, schedule: Q01DX009 (ip), vehicle: saline 94 % of control | endpoint: mean survival time, dose: 200.0 mg/kg/injection, schedule: Q04DX003 (ip), vehicle: other 100 % of control | endpoint: mean survival time, dose: 400.0 mg/kg/injection, schedule: Q01DX009 (ip), vehicle: saline 94 % of control | endpoint: mean survival time, dose: 400.0 mg/kg/injection, schedule: Q04DX003 (ip), vehicle: other 105 % of control

CCOC(=O)c1ccc2c(c1)Cc1cc([N+](=O)[O-])ccc1-2
inactive: endpoint: mean survival time, dose: 100.0 mg/kg/injection, schedule: Q01DX001 (ip), vehicle: carboxymethylcellulose (CMC) 98 % of control | endpoint: mean survival time, dose: 200.0 mg/kg/injection, schedule: Q01DX001 (ip), vehicle: carboxymethylcellulose (CMC) 95 % of control | endpoint: mean survival time, dose: 400.0 mg/kg/injection, schedule: Q01DX001 (ip), vehicle: carboxymethylcellulose (CMC) 95 % of control

CC(=O)Nc1c([N+](=O)[O-])cc2c3c(cccc13)C=C2
inactive: [1] 95 % of control | [2] 92 % of control | [3] 104 % of control

CSC(=S)NNC(=O)c1cccc(S(=O)(=O)F)c1
inactive: endpoint: mean survival time, dose: 75.0 mg/kg/injection, schedule: Q01DX001 (ip), vehicle: saline 97 % of control | endpoint: mean survival time, dose: 150.0 mg/kg/injection, schedule: Q01DX001 (ip), vehicle: saline 96 % of control | endpoint: mean survival time, dose: 300.0 mg/kg/injection, schedule: Q01DX001 (ip), vehicle: saline 96 % of control

COc1ccc(OC)c(CCc2cc(OC)ccc2OC)c1
inactive: endpoint: mean survival time, dose: 12.5 mg/kg/injection, schedule: Q04DX003 (ip), vehicle: other 97 % of control | endpoint: mean survival time, dose: 25.0 mg/kg/injection, schedule: Q04DX003 (ip), vehicle: other 86 % of control | endpoint: mean survival time, dose: 50.0 mg/kg/injection, schedule: Q04DX003 (ip), vehicle: other 97 % of control

O=S1(=O)CCC2C1C1(Cl)C(Cl)=C(Cl)C2(Cl)C1(Cl)Cl (configuration not stated)
inactive: endpoint: mean survival time, dose: 12.5 mg/kg/injection, schedule: Q01DX009 (ip), vehicle: saline sonified 104 % of control | endpoint: mean survival time, dose: 12.5 mg/kg/injection, schedule: Q04DX003 (ip), vehicle: saline with Tween-80 103 % of control | endpoint: mean survival time, dose: 25.0 mg/kg/injection, schedule: Q01DX009 (ip), vehicle: saline sonified 103 % of control | endpoint: mean survival time, dose: 25.0 mg/kg/injection, schedule: Q04DX003 (ip), vehicle: saline with Tween-80 97 % of control | endpoint: mean survival time, dose: 50.0 mg/kg/injection, schedule: Q04DX003 (ip), vehicle: saline with Tween-80 98 % of control

Cc1cn(C2CC3OP(=O)(C(C)(C)C#N)OCC3O2)c(=O)[nH]c1=O (configuration not stated)
inactive: endpoint: median survival time, dose: 12.5 mg/kg/injection, schedule: Q01DX005 (ip), vehicle: distilled water + Tween-80 101 % of control | endpoint: median survival time, dose: 25.0 mg/kg/injection, schedule: Q01DX005 (ip), vehicle: distilled water + Tween-80 100 % of control | endpoint: median survival time, dose: 50.0 mg/kg/injection, schedule: Q01DX005 (ip), vehicle: distilled water + Tween-80 103 % of control | endpoint: median survival time, dose: 100.0 mg/kg/injection, schedule: Q01DX005 (ip), vehicle: distilled water + Tween-80 100 % of control | endpoint: median survival time, dose: 200.0 mg/kg/injection, schedule: Q01DX005 (ip), vehicle: distilled water + Tween-80 97 % of control

C/C(C(=O)O)=C(\C)C(=O)O
inactive: endpoint: mean survival time, dose: 100.0 mg/kg/injection, schedule: Q01DX005 (ip), vehicle: saline 101 % of control | endpoint: mean survival time, dose: 200.0 mg/kg/injection, schedule: Q01DX005 (ip), vehicle: saline 101 % of control | endpoint: mean survival time, dose: 400.0 mg/kg/injection, schedule: Q01DX005 (ip), vehicle: saline 101 % of control
